These results are taken from US8809391B2, “Agent for treating Parkinson's disease” (OOO “Tomskaya Farmatsevticheskaya Fabrika”, priority 2009, dated 2014).

Broadly, the LD50 is the dose at which mortality reaches 50%. A higher LD50 goes with lower toxicity.

The subject of data set [1] is white outbred mice. In words: Acute toxicity, single intragastric administration, Kerber method. The conditions noted are these: mouse, in vivo. An excerpt: (§1) The acute toxicity of the compound 1a was studied in white outbred mice weighting 20-22 g following single intragastric administration using Kerber method.
Test in data set [2]: as above
The conditions noted are these: mouse, in vivo, po; white outbred mice 20-22 g, single intragastric administration, Kerber method.
Description: as §1

Take `C=C(C)C1CC=C(C)C(O)C1O` (centres unmarked) [1a, 3-methyl-6-(1-methylethenyl)cyclohex-3-ene-1,2-diol]: the “acute toxicity (in words)” value in data set [1] is given as “low toxicity”. Besides, the LD50 in data set [2] was 4250 mg/kg.
